From patent US6362218B1, “Brefeldin A derivatives” (Purdue Research Foundation, priority 1997, dated 2002)
Converted amounts (≈) assume the structure as drawn. “And” between values parts separate entries of the source, which are not always exact repeats. Equal values may be shown once.

What was measured:
HOP-62 = assay: NCI human cancer cell line screen, antiproliferative activity, Lung HOP-62; format: cell-based; details: concentration corresponding to 50% growth inhibition, read-out: cytotoxicity GI50, Lung HOP-62
Protocol: (§1) The new synthesized brefeldin A prodrug candidates and analogs were examined for antiproliferative activity against human cancer cell lines in the National Cancer Institute screen, in which the activity of each compound was evaluated with approximately 55 different cancer cell lines of diverse tumor origins.

HCT-116 = assay: NCI human cancer cell line screen, antiproliferative activity, Colon HCT-116; format: cell-based; details: concentration corresponding to 50% growth inhibition, read-out: cytotoxicity GI50, Colon HCT-116
Protocol: as §1

SF-539 = assay: NCI human cancer cell line screen, antiproliferative activity, CNS SF-539; format: cell-based; details: concentration corresponding to 50% growth inhibition, read-out: cytotoxicity GI50, CNS SF-539
Protocol: as §1

UACC-62 = assay: NCI human cancer cell line screen, antiproliferative activity, Melanoma UACC-62; format: cell-based; details: concentration corresponding to 50% growth inhibition, read-out: cytotoxicity GI50, Melanoma UACC-62
Protocol: as §1

OVCAR-3 = assay: NCI human cancer cell line screen, antiproliferative activity, Ovarian OVCAR-3; format: cell-based; details: concentration corresponding to 50% growth inhibition, read-out: cytotoxicity GI50, Ovarian OVCAR-3
Protocol: as §1

SN12C = assay: NCI human cancer cell line screen, antiproliferative activity, Renal SN12C; format: cell-based; details: concentration corresponding to 50% growth inhibition, read-out: cytotoxicity GI50, Renal SN12C
Protocol: as §1

DU-145 = assay: NCI human cancer cell line screen, antiproliferative activity, Prostate DU-145; format: cell-based; details: concentration corresponding to 50% growth inhibition, read-out: cytotoxicity GI50, Prostate DU-145
Protocol: as §1

MDA-MB-435 = assay: NCI human cancer cell line screen, antiproliferative activity, Breast MDA-MB-435; format: cell-based; details: concentration corresponding to 50% growth inhibition, read-out: cytotoxicity GI50, Breast MDA-MB-435
Protocol: as §1

[1] = test system: all human cancer cell lines successfully tested; assay: NCI screen, mean graph midpoint over approximately 55 cancer cell lines; format: cell-based; details: average GI50 for all cell lines tested (approximately 55), test range 10^-4 to 10^-8 molar
Protocol: as §1

[2] = Solubility of saturated solutions in distilled water, gravimetric; details: distilled water at room temperature, saturated solution

Molecule	GI50 (HOP-62) [µM]	GI50 (HCT-116) [µM]	GI50 (SF-539) [µM]	GI50 (UACC-62) [µM]	GI50 (OVCAR-3) [µM]	GI50 (SN12C) [µM]	GI50 (DU-145) [µM]	GI50 (MDA-MB-435) [µM]	MGM (mean graph midpoint for growth inhibition) [1]	MGM (mean graph midpoint for growth inhibition) ([1]; listed as brefeldin A) [µM]	solubility [2] [µg/mL]
C[C@H]1CCC/C=C/[C@@H]2C[C@H](O)C[C@H]2[C@H](O)/C=C/C(=O)O1 [Compound 1, Brefeldin A]	0.07	0.029	0.04	0.022	0.032	0.09	0.13	0.041	0.041 µM and 0.040 µM	0.040	2800 (≈ 9.99 mM)
CC1CCCC=CC2CC(O)CC2C(O)[C@H](Sc2ccc(O)cc2)CC(=O)O1 (stereo partly drawn) [Compound 3, 2,3-Dihydro-(3R)-(4′-hydroxyphenylthio)brefeldin A]	3.2	2.5	5.1	4.8	2.4	4.4	6.3	–	3.2 µM	–	–
CC1CCCC=CC2CC(O)CC2C(O)C(SCCN(C)C)CC(=O)O1 [Compound 4, 2,3-Dihydro-(3R)-(2′-N,N-dimethylaminoethylthiol)brefeldin A]	–	0.75	0.39	0.43	–	1.4	2.4	0.5	0.68 µM	–	10000 (≈ 25.9 mM)
COC(=O)CSC1CC(=O)OC(C)CCCC=CC2CC(O)CC2C1O [Compound 7, 2,3-Dihydro-(3R)-(methoxycarbonylmethylthiol)brefeldin A]	28	19	24	–	27	32	30	30	17 µM	–	–
CC1CCCC=CC2CC(O)CC2C(O)[C@H](SCC(O)CO)CC(=O)O1 (stereo partly drawn) [Compound 8, 2,3-Dihydro (3R)-(2′,3′-dihydroxypropylthio) brefeldin A]	33	36	32	16	22	34	18	36	23 µM	–	–
CC1CCCC=CC2CC(O)CC2C(O)C(SCCN)CC(=O)O1 [Compound 9, 2,3-Dihydro-(3R)-(2′)-aminoethylthio)brefeldin A]	3.9	3.5	4.9	2.7	2.2	–	–	–	2.5 µM	–	–
COc1ccc(S[C@@H]2CC(=O)OC(C)CCCC=CC3CC(O)CC3C2O)cc1 (stereo partly drawn) [Compound 10, 2,3-Dihydro-(3R)-(4′-methoxyphenylthio)brefeldin A]	24	33	26	29	22	30	36	19	31 µM	–	–
C[C@H]1CCC/C=C/[C@@H]2C[C@H](O)C[C@H]2[C@H](O)[C@@H](SC[C@H](N)C(=O)O)CC(=O)O1 [Compound 11, 2,3-Dihydro-(3R)-(S-L-cysteinyl)brefeldin A]	–	–	–	–	–	–	–	–	–	–	35000 (≈ 87.2 mM)
C[C@H]1CCC/C=C/[C@@H]2C[C@H](O)C[C@H]2[C@H](O)[C@H]([S+]([O-])c2ccc(O)cc2)CC(=O)O1 (stereo partly drawn) [Compound 14, 2,3-Dihydro-(3R)-(4′-hydroxyphenylsulfinyl)brefeldin A]	0.088	0.026	0.017	0.03	0.025	0.05	0.118	0.042	0.037 µM	–	–
CC1CCCC=CC2CC(O)CC2C(O)[C@H]([S+]([O-])CCN)CC(=O)O1 (stereo partly drawn) [Compound 18, 2,3-Dihydro-(3R)-(2′-aminoethylsulfinyl)brefeldin A]	0.15	0.086	0.02	0.021	0.082	0.12	0.17	0.055	0.055 µM	–	–
C[C@H]1CCC/C=C/[C@@H]2C[C@H](O)C[C@H]2[C@@H](O)[C@H]([S+]([O-])CCN(C)C)CC(=O)O1 (stereo partly drawn) [Compound 20, 2,3-Dihydro-(3R)-[21-N,N-(dimethylamino)ethylsulfinyl]brefeldin A]	0.35	0.28	0.3	0.071	0.14	0.15	0.48	0.41	0.20 µM	–	–
CC1CCCC=CC2CC(O)CC2C(O)C([S+]([O-])C[C@H](N)C(=O)O)CC(=O)O1 (stereo partly drawn) [Compound 21, 2,3-Dihydro-(3R)-(S-L-cysteinyl)brefeldin A Sulfoxide]	0.7	0.091	0.038	0.038	0.039	0.16	0.43	0.05	0.096 µM	–	–
C[C@H]1CCC/C=C/[C@@H]2C[C@H](OC(=O)CCC(=O)O)C[C@H]2[C@H](OC(=O)CCC(=O)O)/C=C/C(=O)O1 [Compound 24, Brefeldin A Disuccinate]	> 100	> 100	> 100	> 100	> 100	> 100	> 100	> 100	89 µM	–	–
CC1CCCC=CC2CC(OC(=O)CCCC(=O)O)CC2C(OC(=O)CCCC(=O)O)C=CC(=O)O1 (stereo not drawn) [Compound 25, Brefeldin A Diglutarate]	> 100	> 100	> 100	> 100	> 100	> 100	> 100	> 100	98 µM	–	–
CC1CCCC=CC2CC(O)CC2C(O)C(O)C(O)C(=O)O1 (stereo not drawn) [Compound 26, 2,3-Dihydro-2,3-dihydroxybrefeldin A]	5	–	0.68	1.6	2.4	2.7	6.7	3.8	3.0 µM and 2.3 µM	–	–
COC(=O)CS(=O)(=O)[C@@H]1CC(=O)OC(C)CCCC=CC2CC(O)CC2C1O (stereo partly drawn) [Compound 27, 2,3-Dihydro(3R)-(methoxycarbonylmethylsulfonyl)brefeldin A]	5.1	3.7	–	5	3.2	–	6	5.5	3.5 µM	–	–
Brefeldin A 8 0-Glutarate [Compound 23]	33	21	22	–	20	32	30	11	13 µM	–	–
Brefeldin A 8 0-Succinate [Compound 22]	–	–	–	–	–	–	–	–	2.5 µM	–	–
